Consider seven molecules from patent publication EP4786466A1, “QUINAZOLINE DERIVATIVE, SALT THEREOF, AND PHARMACEUTICAL COMPOSITION COMPRISING SAME AS ACTIVE INGREDIENT” (Korea Research Institute of Chemical Technology, priority 2023, dated 2025).

Where two headings read alike, the source gives them in different places.

A short description of one data set: in vitro. The settings on record: human, mcf10a cells.
The target in data set [1] is T1, Recombinant GST-TAG-MASTL (Homo sapiens, UniProt Q96GX5).
T1 construct: GST; purchased Thermo Fisher Scientific
T1 sequence (Q96GX5 1-879): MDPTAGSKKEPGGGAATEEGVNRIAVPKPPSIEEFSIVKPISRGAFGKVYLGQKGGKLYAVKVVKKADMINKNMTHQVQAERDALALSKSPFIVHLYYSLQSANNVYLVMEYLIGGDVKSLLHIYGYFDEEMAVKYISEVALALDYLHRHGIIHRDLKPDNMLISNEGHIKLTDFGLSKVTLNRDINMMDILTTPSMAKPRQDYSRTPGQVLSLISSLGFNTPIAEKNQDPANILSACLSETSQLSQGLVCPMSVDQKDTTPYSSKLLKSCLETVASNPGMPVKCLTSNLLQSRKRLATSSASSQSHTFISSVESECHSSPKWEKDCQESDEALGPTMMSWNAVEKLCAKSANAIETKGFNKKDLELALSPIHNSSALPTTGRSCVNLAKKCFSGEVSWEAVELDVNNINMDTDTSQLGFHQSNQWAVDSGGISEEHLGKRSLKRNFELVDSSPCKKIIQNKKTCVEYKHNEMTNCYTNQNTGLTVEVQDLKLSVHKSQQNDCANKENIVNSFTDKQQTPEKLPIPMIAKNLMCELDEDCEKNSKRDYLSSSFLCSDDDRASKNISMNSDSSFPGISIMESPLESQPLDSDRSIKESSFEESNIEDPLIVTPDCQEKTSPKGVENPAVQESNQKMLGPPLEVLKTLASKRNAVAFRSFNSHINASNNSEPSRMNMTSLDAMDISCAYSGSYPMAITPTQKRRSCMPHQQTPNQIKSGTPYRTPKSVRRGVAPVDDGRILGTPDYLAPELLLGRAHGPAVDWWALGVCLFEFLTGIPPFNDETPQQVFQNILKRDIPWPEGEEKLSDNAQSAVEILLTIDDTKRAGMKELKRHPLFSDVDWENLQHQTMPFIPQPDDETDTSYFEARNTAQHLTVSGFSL
Put plainly: HTRF-based kinase assay (HTRF KinEASE assay kit). The data set is classed as biochemical. Conditions: for activity at 1.25 µM: footnote a: concentration 1.25 µM; for activity at 1 µM: read-out: MASTL activity (%) HTRF (1 µM). The source says:
Recombinant GST-TAG-MASTL (Thermo Fisher Scientific, MA, USA) was used for HTRF-based kinase assays. The HTRF KinEASE assay kit (CisBio, MA, USA) was used according to the manufacturer's instructions.
For orientation: Time-resolved FRET reads energy transfer from a long-lived donor to a nearby acceptor.

The subject of a further data set is pENSA. Put plainly: pENSA level by immunofluorescence (described method: in vitro kinase analysis with GST-tag-MASTL and His-tag-ENSA). The data set is classed as cell-based. Conditions: for pENSA (%) Immunofluor ecense (1 µM): compound 1 µM; for IC50: read-out: IC50(nM) pENSA. An outline of the steps:
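In vitro kinase reaction using recombinant GST-tagged MASTL with His-tagged ENSA as substrate; phosphorylated ENSA (pENSA) serves as read-out of MASTL activity. Cell lines named: MCF7 breast cancer and MCF10A.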

Data set [2] has as its system MCF7 breast cancer cell lines. Nature of the data set: Cell viability analysis, WST-8 assay, MCF7. Conditions: Homo sapiens, MCF7, 72 h; for viability at 1.25 µM: read-out: Cell viability (%) WST-8, MCF7, footnote a: concentration 1.25 µM, 72 hours; for viability at 1.1 µM: read-out: Cell viability (%) WST-8, MCF7, footnote d: concentration 1.1 µM, 72 hours.
Procedure: (§1) MCF7 breast cancer cell lines and MCF10A normal breast cancer cell lines were treated with serial dilutions of the compounds of the present invention ranging from 1 µM to 15.63 nM for 72 hours. Cell viability was measured by the WST-8 assay (Cyto XTM cell viability assay kit; LPS solution, Daejeon, Korea) according to the manufacturer's instructions.
The subject of data set [3] is MCF10A normal breast cell lines. Put plainly: Cell viability analysis, WST-8 assay, MCF10A. Conditions: Homo sapiens, MCF-10A, 72 h. In general terms: Formazan colour is commonly taken as a measure of viable cells.
Procedure: as §1
Setting [4] is: HTRF, read-out: IC50(nM) MASTL activity.
Where [5] appears, read: read-out: IC50 Cell viability (MCF7).
Where [6] appears, read: read-out: IC50 Cell viability (MCF10A).
Setting [7] is: HTRF, unit µM, read-out: IC50 MASTL activity.
The mark [8] stands for this setting: read-out: MASTL activity (%) HTRF.
Setting [9] is: read-out: IC50(nM) Cell viability (MCF7).
The mark [10] stands for this setting: read-out: IC50(nM) Cell viability (MCF10A).

As usually defined, the IC50 is the concentration that inhibits the measured activity by half.

In the case of `O=C(Nc1ccc(F)cc1)N1CCN(c2nc(Nc3cc(C4CC4)[nH]n3)c3ccccc3n2)CC1` [compound 12d, 4-(4-((5-cyclopropyl-1G-pyrazol-3-yl)amino)quinazolin-2-yl)-M-(4-fluorophenyl)piperazine-1-carboxamide], the viability at 1.25 µM in the data set “in vitro” amounted to 63.7%; in data set [2] it was 55.8%. Moreover, the IC50 in data set [1] (setting [4]) is 832 nM; in the data set on pENSA it was 571 nM; in data set [2] (setting [5]) it was 1500 nM; in data set [3] (setting [6]), 1500 nM. Moreover, the activity at 10 µM in data set [1] (footnote b: concentration 10 µM, read-out: MASTL activity (%) HTRF) was 14.1%. Also, the “pENSA (%) Immunofluor ecense (1 µM)” value in the data set on pENSA is 46.3%.
Turning to `CC(C)(C)OC(=O)N1CC2CC1CN2c1nc(Nc2cc(C3CC3)[nH]n2)c2ccccc2n1` (centres unmarked) [compound 13, sdqs-butyl 5-(4-((5-cyclopropyl-1G-pyrazol-3-yl)amino)quinazolin-2-yl)-2,5-diazabicyclo[2.2.1]heptane-2-carboxylate], the figures for the viability at 1.25 µM (in “in vitro”; in data set [2]) were 15.9% and 62%, respectively. The IC50 in data set [1] (setting [7]) stood at 1000 nM; in data set [2] (setting [9]), 932 nM; in data set [3] (setting [10]) it was 316 nM. The activity at 1.25 µM in data set [1] (setting [8]) was found to be 53.8%. In addition, the “pENSA (%) Immunofluor ecense (1 µM)” value in the data set on pENSA is reported as 90%.
As to `c1ccc2c(Nc3cc(C4CC4)[nH]n3)nc(N3CC4CC3CN4)nc2c1` (centres unmarked) [compound 14, 2-(2,5-diazabicyclo[2.2.1]heptan-2-yl)-M-(5-cyclopropyl-1G-pyrazol-3-yl)quinazolin-4-amine Trifluoroacetic acid], the viability at 1 µM in the data set “in vitro” is 63.4%; in data set [2] (read-out: Cell viability (%) WST-8, MCF7 (1 µM), compound 1 µM, 72 hours), 21.8%. The IC50 in data set [1] came out at 593 nM; with pENSA, 645 nM; in data set [2] (setting [9]) it was 647 nM; in data set [3] (setting [6]) it was 1700 nM. The activity at 1 µM in data set [1] was found to be 25.5%. Further, the “pENSA (%) Immunofluor ecense (1 µM)” value in the data set with pENSA was found to be 9.2%.
With `CCNC(=O)N1CC2CC1CN2c1nc(Nc2cc(C3CC3)[nH]n2)c2ccccc2n1` (centres unmarked) [compound 15a, 5-(4-((5-cyclopropyl-1G-pyrazol-3-yl)amino)quinazolin-2-yl)-M-ethyl-2,5-diazabicyclo[2.2.1]heptane-2-carboxamide], the viability at 1.25 µM was 37% in “in vitro” and 61% in data set [2]. The concentration for half-maximal inhibition (IC50) in data set [1] (setting [7]) was determined as 1100 nM; in data set [3] (setting [10]), 820 nM. Further, the activity at 1.25 µM in data set [1] (setting [8]) amounted to 61.1%. In the data set with pENSA, the “pENSA (%) Immunofluor ecense (1 µM)” value is listed as 86.1%.
Turning to `CC(C)S(=O)(=O)N1CC2CC1CN2c1nc(Nc2cc(C3CC3)[nH]n2)c2ccccc2n1` (centres unmarked) [compound 15h, M-(5-cyclopropyl-1G-pyrazol-3-yl)-2-(5-(isopropylsulfonyl)-2,5-diazabicyclo[2.2.1]heptan-2-yl)quinazolin-4-amine], the viability at 1.1 µM in “in vitro” was found to be 45%; in data set [2], 94.5%. The IC50 is 147 nM in data set [1] (setting [4]), 1700 nM in data set [2] (setting [5]) and 833 nM in data set [3] (setting [10]). Also, the activity at 1 µM in data set [1] (compound 1 µM) turned out to be 15.7%. In the data set with pENSA, the “pENSA (%) Immunofluor ecense (1 µM)” value was 51.7%.
`CCCS(=O)(=O)N1CC2CC1CN2c1nc(Nc2cc(C3CC3)[nH]n2)c2ccccc2n1` (centres unmarked) [compound 15j, M-(5-cyclopropyl-1G-pyrazol-3-yl)-2-(5-(propylsulfonyl)-2,5-diazabicyclo[2.2.1]heptan-2-yl)quinazolin-4-amine]: the viability at 1.1 µM in “in vitro” was found to be 65.2%; in data set [2] it was 104%. Further, the IC50 stood at 284 nM in data set [1] (setting [4]), 3200 nM in data set [2] (setting [5]) and 1300 nM in data set [3] (setting [6]). Moreover, the activity at 1 µM in data set [1] (compound 1 µM) turned out to be 31.6%. For the same molecule, in the data set with pENSA, the “pENSA (%) Immunofluor ecense (1 µM)” value is 65.2%.
Take `O=S(=O)(c1ccccc1)N1CC2CC1CN2c1nc(Nc2cc(C3CC3)[nH]n2)c2ccccc2n1` (centres unmarked) [compound 15m, M-(5-cyclopropyl-1G-pyrazol-3-yl)-2-(5-(phenylsulfonyl)-2,5-diazabicyclo[2.2.1]heptan-2-yl)quinazolin-4-amine]: the viability at 1.1 µM in “in vitro” is 82.2%; in data set [2], 111%. In addition, the values for the IC50 in data set [1] (setting [4]), in data set [2] (setting [5]) and in data set [3] (setting [6]) were 490 nM, 4200 nM and 1900 nM, respectively. For the same molecule, the activity at 1 µM in data set [1] (compound 1 µM) was 28.7%. Moreover, in the data set on pENSA, the “pENSA (%) Immunofluor ecense (1 µM)” value is 82.6%.
